Target: T1, Toll-like receptor 7 (Mus musculus, UniProt P58681)
T1 construct: endogenous in cells; host or cells: RAW 264.7 murine macrophage cells
T1 sequence (P58681 27-1050): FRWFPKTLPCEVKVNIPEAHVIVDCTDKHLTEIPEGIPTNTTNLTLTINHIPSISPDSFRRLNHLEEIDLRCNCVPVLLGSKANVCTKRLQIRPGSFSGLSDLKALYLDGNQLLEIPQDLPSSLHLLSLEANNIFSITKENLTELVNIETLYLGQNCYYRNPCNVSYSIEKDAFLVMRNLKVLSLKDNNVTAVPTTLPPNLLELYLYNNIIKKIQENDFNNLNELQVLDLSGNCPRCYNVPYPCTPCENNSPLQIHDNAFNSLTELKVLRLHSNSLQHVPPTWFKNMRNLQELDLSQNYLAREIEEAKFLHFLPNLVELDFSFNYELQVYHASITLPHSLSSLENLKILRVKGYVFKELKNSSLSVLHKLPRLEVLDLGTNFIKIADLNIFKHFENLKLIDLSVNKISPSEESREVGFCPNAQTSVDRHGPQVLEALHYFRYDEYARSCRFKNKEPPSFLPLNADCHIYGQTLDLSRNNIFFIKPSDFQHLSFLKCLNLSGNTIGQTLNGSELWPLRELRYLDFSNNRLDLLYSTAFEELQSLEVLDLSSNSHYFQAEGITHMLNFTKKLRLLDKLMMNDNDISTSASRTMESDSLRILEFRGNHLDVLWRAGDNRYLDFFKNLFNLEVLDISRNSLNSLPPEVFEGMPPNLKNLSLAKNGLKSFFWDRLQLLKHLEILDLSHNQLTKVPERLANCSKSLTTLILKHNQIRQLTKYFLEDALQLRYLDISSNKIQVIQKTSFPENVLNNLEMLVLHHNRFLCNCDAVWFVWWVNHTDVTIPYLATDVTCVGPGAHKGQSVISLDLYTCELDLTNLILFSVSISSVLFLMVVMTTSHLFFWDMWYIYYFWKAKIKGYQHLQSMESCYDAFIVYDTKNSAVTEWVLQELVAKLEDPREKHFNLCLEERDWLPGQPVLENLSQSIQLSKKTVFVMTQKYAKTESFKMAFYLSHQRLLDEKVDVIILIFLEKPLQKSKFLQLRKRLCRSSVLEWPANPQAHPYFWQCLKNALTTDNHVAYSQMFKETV
Assay: Secreted TNF-α (ALPHA-LISA) in RAW 264.7 macrophages treated with miRNAs (TLR7 activation)
Format: cell-based, murine
Settings: RAW 264.7 cells, 5 ug RNA, 6, 24 and 48 h
Method: FIG. 11A-11C depict how miR-146a and miR-142-3p bind to and activate the inflammatory Toll-like receptor 7. 11A) RAW 264.7 murine macrophage cells were treated the indicated treatments for 6, 24 and 48 h: 1) negative CTRL (−)=no treatment; 2) Gardiquimod (3 ug/mL)=+control for TLR7 activation; 3) miR-146a (5 ug) sequence: […] (SEQ ID NO:70), 4) miR-142-3p (5 ug) […] (SEQ ID NO:71); 5) miR-146amut (5 ug, sequence: […] (SEQ ID NO:72)); 6) miR-142-3pmut (5 ug, sequence: […] (SEQ ID NO:73)). After the indicated timepoints, media was collected and an ALPHA-LISA was performed to measure the amount of secreted TNF-α. […] B) RAW 264.7 murine macrophage cells were treated with gardiquimod or the indicated microRNAs for 48 h, where peak activation was observed. Secreted TNF-α was assessed as in A) using an ALPHA-LISA. C) HEK 293 cells were transfected with a plasmid encoding TLR7-YFP (green) and either a Cy5-miR-146a or Cy5-miR-142-3p (red). 48 h post-transfection cells were fixed and confocal microscopy was performed using an Olympus FV-1000 at 100× magnification.

| Molecule | secretion of TNF-α (TLR7 activation) |
| --- | --- |
| miR-142-3p: microRNA, sequence uguaguguuuccuacuuuaugga (SEQ ID NO:71) (UGUAGUGUUUCCUACUUUAUGGA; listed as RNA, chemistry not given here; listed as Homo sapiens) | activate secretion of TNF-α |
| miR-142-3pmut: uridine-deficient mutant microRNA, sequence agaagagaaaccaacaaaaugga (SEQ ID NO:73) (AGAAGAGAAACCAACAAAAUGGA; listed as RNA, chemistry not given here; listed as Homo sapiens) | prevents activation |
| miR-146amut: uridine-deficient mutant microRNA, sequence agagaacagaaaaccacgggaa (SEQ ID NO:72) (AGAGAACAGAAAACCACGGGAA; listed as DNA, chemistry not given here; listed as Homo sapiens) | prevents activation |

Target: T2, TLR7 (Mus musculus, UniProt P58681)
T2 construct: endogenous in cells; host or cells: RAW 264.7 murine macrophage cells
T2 sequence (P58681 27-1050): T1 sequence (P58681 27-1050)
Assay: Competition of TLR7 activation by uridine-deficient mutant miRNA in RAW 264.7 cells (secreted TNF-α)
Format: cell-based, murine
Settings: constant dose of parent miRNA with increasing doses of mutant, 48 hours
Method: A) HEK 293 cells were transfected with a plasmid encoding TLR7-YFP (green) and either a Cy5-miR-146a mutant microRNA or Cy5-miR-142-3p mutant microRNA (red) […] post-transfection cells were fixed and confocal microscopy was performed using an Olympus FV-1000 at 100× magnification. […] B) RAW 264.7 murine macrophage cells were treated with a constant dose of miR-146a with increasing doses of a uridine-deficient miR-146a mutant. 48 hours later TLR7 activation was assessed via secreted TNF-α. […] C) RAW 264.7 murine macrophage cells were treated with a constant dose of […] with increasing doses of a uridine-deficient miR-142-3pmutant. 48 hours later TLR7 activation was assessed via secreted TNF-α.

| Molecule | competition of TLR7 activation by the parent miRNA |
| --- | --- |
| miR-142-3pmut: uridine-deficient mutant microRNA, sequence agaagagaaaccaacaaaaugga (SEQ ID NO:73) (AGAAGAGAAACCAACAAAAUGGA; listed as RNA, chemistry not given here; listed as Homo sapiens) | can compete away TLR7 activation |
| miR-146amut: uridine-deficient mutant microRNA, sequence agagaacagaaaaccacgggaa (SEQ ID NO:72) (AGAGAACAGAAAACCACGGGAA; listed as DNA, chemistry not given here; listed as Homo sapiens) | can compete away the activation of TLR7 by miR-146a |

System: miRNA sequences
Assay: not given
Settings: known mechanism listed in Table 6; compounds will be tested; cited from earlier work

| Molecule | Activity |
| --- | --- |
| Cc1ccc(-n2sc3ccccc3c2=O)cc1 [PBIT] | Jumanji AT-rich interactive domain 1 family of lysine demethylases (JARID1) inhibitor |
| COc1cc2nc(N3CCCN(C)CC3)nc(NC3CCN(Cc4ccccc4)CC3)c2cc1OC [BIX-01294] | G9a histone methyltransferase/ GLP histone methyltransferase (G9a/GLP) inhibitor |
| O=C(Nc1cccc(Br)c1)c1cccc(S(=O)(=O)N2CCCCCC2)c1 [AK-7] | NAD-dependent deacetylase sirtuin 2 (SIRT2) inhibitor |
| N[C@@H]1C[C@H]1c1ccccc1 [Tranyl- cypromine hemisulfate] | Lysine-specific demethylase 1 (LSD1/BHC110) inhibitor |
| CN(C)NC(=O)CCC(=O)O [Daminozide] | KDM2/KDM7 JmjC subfamily of histone demethylase inhibitor |
| O=C(O)CCNc1cc(N2CCc3ccccc3CC2)nc(-c2ccccn2)n1 [GSK-J1 (cell impermeable)] | Jumonji H3K27 histone demethylase (JMJD3/UTX) inhibitor |
| COC(=O)CNC(=O)C(=O)OC [DMOG] | Prolyl hydroxylase domain- containing protein (PHD/JMJD2A) inhibitor |
| O=C(/C=C/c1cccnc1)NCCCCC1CCN(C(=O)c2ccccc2)CC1 [FK-866 HCI] | Nicotinamide phosphoribosyl- transferase (Nampt) inhibitor |
